Format in all cases: in vivo, Cavia porcellus
For one experiment, the system named is form-deprivation myopia. The experiment can be described thus: Monocular form-deprivation (FD) myopia model, periocular injection; diopter by eccentric infrared photo-refractor, ocular axis parameters by A-mode ultrasound. Conditions: guinea pig FD eyes, daily periocular injection, after 4 weeks. The protocol:
(§1) The experimental animals used in this experiment were 3-week-old British shorthair three-colored guinea pigs (Cavia porcellus). Mask technique was used as a model of monocular form-deprivation (FD) myopia. In the myopic sclera HIF-1α expression experiment, the animals were randomly divided into three groups: the normal control group, FD 1 week group, and FD 1 week & 2-day recovery group. […] In the administration experiment, HIF-1α inhibitors salidroside and formononetin were administered to the form-deprived eyes by periocular injection to inhibit HIF-1α activity. The animals in the salidroside injection experiment were randomly divided into three groups: form-deprivation+solvent control group (FD+0.9% normal saline (NS)), form-deprivation+low concentration drug group (FD+SDS 1 μg), and form-deprivation+high concentration drug group (FD+SDS 10 μg). The animals in the formononetin injection experiment were randomly divided into three groups: form-deprivation+solvent control group (FD+DMSO), form-deprivation+low concentration drug group (FD+FMN 0.5 μg), and form-deprivation+high concentration drug group (FD+FMN 5 μg). Periocular injection of drugs was performed daily at 9 am for 4 weeks without treatment of the contralateral eyes. Before the experiment and after 2 weeks and 4 weeks of administration respectively, the diopter was measured with an eccentric infrared photo-refractor (EIR), and the ocular axis parameters such as vitreous chamber depth and ocular axis length were measured with amplitude-mode ultrasound (11 MHz). After the administration, the sclera was removed and the expression of HIF-1α and collagen type I were detected by Western Blot.

Experiment [1] relates to scleral hypoxia-inducible factor-1α (HIF-1α). The experiment can be described thus: Western Blot of scleral HIF-1α after administration in form-deprived eyes. Particulars: sclera removed after administration. The method, then:
as §1, with “The animals in the formononetin injection experiment were randomly divided into three groups: form-deprivation+solvent control group (FD+DMSO), form-deprivation+low concentration drug group (FD+FMN 0.5 μg), and form-deprivation+high concentration drug group (FD+FMN 5 μg). Periocular injection of drugs was performed daily at 9 am for 4 weeks without treatment of the contralateral eyes.” left out
(A western blot detects proteins with antibodies after separation by electrophoresis.)

The next experiment has as its system collagen type I. In words: Western Blot of scleral collagen type I after administration in form-deprived eyes. Conditions: sclera removed after administration. The method, then:
as §1, with “The animals in the formononetin injection experiment were randomly divided into three groups: form-deprivation+solvent control group (FD+DMSO), form-deprivation+low concentration drug group (FD+FMN 0.5 μg), and form-deprivation+high concentration drug group (FD+FMN 5 μg). Periocular injection of drugs was performed daily at 9 am for 4 weeks without treatment of the contralateral eyes.” left out

For `OC[C@H]1O[C@@H](OCCc2ccc(O)cc2)[C@H](O)[C@@H](O)[C@@H]1O` [salidroside], in the experiment on form-deprivation myopia, the “extension of ocular axis (ocular axis length difference) compared with solvent-injection group” value is “relatively smaller”; the “extension of vitreous chamber (vitreous chamber depth difference) compared with solvent-injection group” value is “relatively smaller”; the “myopia formation (diopter difference between experimental eyes and contralateral eyes) compared with form-deprivation solvent-injection group” value was “significantly reduced”. The “up-regulation of HIF-1α expression in the sclera of FDM eyes” value in experiment [1] is given as “inhibited”. Moreover, in the experiment with collagen type I, the “down-regulation of collagen (type I) expression in the sclera of FDM eyes” value is “inhibited”.

(Values after patent publication US20200121706A1, “METHOD FOR INHIBITING MYOPIA AND APPLICATION IN PREPARING DRUG” (WENZHOU MEDICAL UNIVERSITY, priority 2017, published 2020).)
